Reference: patent US20140263071A1, “METHOD FOR COLLECTING METALS” (CHEMEC OY AB, priority 2011, published 2014)
Marks after values point to notes of the source that are not given here.

What was measured:
[1] = Optimal expulsion pH range with minimum expulsion percent, single elements (Example 7)
Protocol: A water solution (110 ml) containing known amount of single cationic element or elements, typically 0.5-200 ppm, was prepared from Merch Titrisol® standard solution. After adjusting pH by using acid (e.g. HCl or HNO3) or base (e.g. NaOH) to desired initial value, sample A (10 ml) was taken followed by adding 100 mg of selected solid complexation agent. The mixture was stirred at room temperature for 24 h and sample B (10 ml) was taken. Samples A and B were filtrated separately trough 0.2 μm syringe filter and the concentration of the studied element or elements in both solution was determined by using atomic absorption spectrophotometer. The expulsion percent was determined from the concentration differences between the sample solutions A and B.
Using the above mentioned general procedure optimal expulsion pH ranges for each metal with complexation agent 1a was determined. For each element the expulsion percent was determined in 5-14 different pH value. The obtained results are shown in table below with minimum expulsion percent inside the optimal pH range.

[2] = Effect of temperature on expulsion percent, Pb^2+ spiked TS 5, 1a 1.0 g/100 ml, 24 h (Example 12)
Protocol: A test solution containing 1-15 mg/l of Al^3+, Fe^2/3+, Mg^2+, Mn^2+, Ni^2+ and Zn^2+; 0.1-0.9 mg/l of Ca^2+ and Na^+; and trace amount of other Cr^3+, Co^2+, Cu^2+, Eu^3+, La^3+, Nd^3+, Y^3+, UO2^2+ and Nb^5+ cations were prepared.
Effect of temperature to selected metal expulsion per cents was tested using TS 5 with comlexation agent 1a. TS 5 (100 ml), spiked with known amounts of lead (Pb^2+) cations, was stirred with 1a (1.0 g) at selected temperature for 24 h followed by separation of 1a by filtration trough 0.2 μm syringe filter. Metal concentrations at 4° C., 7° C., 22° C., 30° C., 40° C. and 50° C. were determined by using ICP-AES analysis.

[3] = Removal of Cr^3+ from acidic solution, TS 4 diluted 1:100 (Example 19); conditions: TS 4 diluted 1:100, pH 3.67, 1.0 g agent in 50 ml, 24 h
Protocol: A test solution containing 24000 mg/l of Na^+; 50-2000 mg/l of Ca^2+, Cr^3+, K^+ and Mg^2+; and trace amount of Al^3+, Fe^2/3+, Mn^2+, Ni^2+, Sr^2+, V^4+, and Zn^2+ cations were prepared.
TS 4 was diluted to 1:100 with water, pH (3.67) of the solution was determined and sample A was taken. A part (50 ml) of the diluted solution was treated with 1a, 6d or 7a (1.0 g) for 24 h with stirring at room temperature. After filtration trough 0.2 μm syringe filter, the expulsion per for Cr(III) was determined compared to original solution A. The results of expulsion per cents of Cr^3+ and some other elements are given in Table 13.

[4] = Purification of water draining through the dump site, TS 1 (Example 16); conditions: Mo^2+

NCCCCCCCCCCC(O)(P(=O)(O)O)P(=O)(O)O [Compound 1a, 11-Amino-1-hydroxyundecane-1,1-diyldiphosphonic acid]
Expulsion [%] ([1]; Ag^+, minimum within pH range 1.5-12): >84% | Expulsion [%] ([1]; Al^3+, minimum within pH range 1-2): >96% | Expulsion [%] ([1]; Au^3+, minimum within pH range 0-2): >39% | Expulsion [%] ([1]; Ba^2+, minimum within pH range 3-12): >75% | Expulsion [%] ([1]; Bi^3+, minimum within pH range 0.5-4): 100% | Expulsion [%] ([1]; Ca^2+, minimum within pH range 4-12): >50% | Expulsion [%] ([1]; Cd^2+, minimum within pH range 3-11): >36% | Expulsion [%] ([1]; Co^2+, minimum within pH range 4-11): >77% | Expulsion [%] ([1]; Cr^3+, minimum within pH range 2.5-12): >60% | Expulsion [%] ([1]; Cr^6+, As^3/5+, Ta^5+, within pH range 0-12): <8% | Expulsion [%] ([1]; Cu^2+, minimum within pH range 3-11): >87% | Expulsion [%] ([1]; Cu^+, minimum within pH range 3-11): >79% | Expulsion [%] ([1]; Eu^3+, minimum within pH range 2-8): 70% | Expulsion [%] ([1]; Fe^2+, minimum within pH range 3-10): >79% | Expulsion [%] ([1]; Fe^3+, minimum within pH range 1-11): >55% | Expulsion [%] ([1]; Ga^3+, minimum within pH range 0.5-1): 100% | Expulsion [%] ([1]; Ga^3+, minimum within pH range 6-11): >90% | Expulsion [%] ([1]; Hg^2+, minimum within pH range 2-11): >90% | Expulsion [%] ([1]; Hg^+, minimum within pH range 2-11): >80% | Expulsion [%] ([1]; Ir^3+, minimum within pH range 0.0-0.5): >65% | Expulsion [%] ([1]; La^3+, minimum within pH range 0-3.8): >40% | Expulsion [%] ([1]; Li^+, Na^+, K^+, within pH range 0-12): <5% | Expulsion [%] ([1]; Mg^2+, minimum within pH range 4-12): >74% | Expulsion [%] ([1]; Mn^2+, minimum within pH range 4-10): >69% | Expulsion [%] ([1]; Mo^6+, minimum within pH range 4-10): >55% | Expulsion [%] ([1]; Nb^5+, minimum within pH range 0-12): >40% | Expulsion [%] ([1]; Nd^3+, minimum within pH range 2-8): >75% | Expulsion [%] ([1]; Ni^2+, minimum within pH range 4-11): >40% | Expulsion [%] ([1]; Os^4+, minimum within pH range 5-7): >40% | Expulsion [%] ([1]; Pb^2+, minimum within pH range 2-9): >79% | Expulsion [%] ([1]; Pd^2+, minimum within pH range 7-12): >65% | Expulsion [%] ([1]; Pt^2+, minimum within pH range 0-1): >60% | Expulsion [%] ([1]; Rh^3+, minimum within pH range 2-10): >19% | Expulsion [%] ([1]; Ru^3+, minimum within pH range 2-11): >55% | Expulsion [%] ([1]; Sb^3+, minimum within pH range 0.5-11): >75% | Expulsion [%] ([1]; Sc^3+, minimum within pH range 0-12): >80% | Expulsion [%] ([1]; Si^4+, Se^4/6+, within pH range 0-12): <2% | Expulsion [%] ([1]; Sn^2+, minimum within pH range 8-10): 100% | Expulsion [%] ([1]; Sn^4+, minimum within pH range 7-11): >91% | Expulsion [%] ([1]; Sr^2+, minimum within pH range 4-12): >80% | Expulsion [%] ([1]; Ti^4+, minimum within pH range 10-12): >35% | Expulsion [%] ([1]; V^4+, minimum within pH range 0-0.5): >30% | Expulsion [%] ([1]; W^6+, minimum within pH range 0.5-3): >12% | Expulsion [%] ([1]; Y^3+, minimum within pH range 1.5-4 >10): >60% | Expulsion [%] ([1]; Zn^2+, minimum within pH range 4-11): >75% | Expulsion [%] ([1]; Zr^4+, minimum within pH range 0-4.8-10): 60% | Expulsion [%] ([2]; Al^3+, 4° C.): 6.3% | Expulsion [%] ([2]; Al^3+, 7° C.): 15.4% | Expulsion [%] ([2]; Al^3+, 22° C.): 18.5% | Expulsion [%] ([2]; Al^3+, 30° C.): 14.6% | Expulsion [%] ([2]; Al^3+, 40° C.): 98.0% | Expulsion [%] ([2]; Al^3+, 50° C.): 97.6% | Expulsion [%] ([2]; Ca^2+, 4° C.): 0.0% | Expulsion [%] ([2]; Ca^2+, 7° C.): 0.0% | Expulsion [%] ([2]; Ca^2+, 22° C.): 9.4% | Expulsion [%] ([2]; Ca^2+, 30° C.): 10.0% | Expulsion [%] ([2]; Ca^2+, 40° C.): 63.5% | Expulsion [%] ([2]; Ca^2+, 50° C.): 71.2% | Expulsion [%] ([2]; Cd^2+, 4° C.): 16.1% | Expulsion [%] ([2]; Cd^2+, 7° C.): 18.3% | Expulsion [%] ([2]; Cd^2+, 22° C.): 34.5% | Expulsion [%] ([2]; Cd^2+, 30° C.): 41.3% | Expulsion [%] ([2]; Cd^2+, 40° C.): 99.0% | Expulsion [%] ([2]; Cd^2+, 50° C.): 98.9% | Expulsion [%] ([2]; Fe^2/3+, 4° C.): 0.0% | Expulsion [%] ([2]; Fe^2/3+, 7° C.): 0.7% | Expulsion [%] ([2]; Fe^2/3+, 22° C.): 5.2% | Expulsion [%] ([2]; Fe^2/3+, 30° C.): 4.4% | Expulsion [%] ([2]; Fe^2/3+, 40° C.): 99.3% | Expulsion [%] ([2]; Fe^2/3+, 50° C.): ≥ 99.3^1% | Expulsion [%] ([2]; Mg^2+, 4° C.): 0.7% | Expulsion [%] ([2]; Mg^2+, 7° C.): 0.7% | Expulsion [%] ([2]; Mg^2+, 22° C.): 7.1% | Expulsion [%] ([2]; Mg^2+, 30° C.): 5.5% | Expulsion [%] ([2]; Mg^2+, 40° C.): ≥ 97.7^1% | Expulsion [%] ([2]; Mg^2+, 50° C.): ≥ 97.7^1% | Expulsion [%] ([2]; Mn^2+, 4° C.): 4.6% | Expulsion [%] ([2]; Mn^2+, 7° C.): 5.3% | Expulsion [%] ([2]; Mn^2+, 22° C.): 14.7% | Expulsion [%] ([2]; Mn^2+, 30° C.): 13.3% | Expulsion [%] ([2]; Mn^2+, 40° C.): ≥ 99.7^1% | Expulsion [%] ([2]; Mn^2+, 50° C.): ≥ 99.7^1% | Expulsion [%] ([2]; Ni^2+, 4° C.): 0.9% | Expulsion [%] ([2]; Ni^2+, 7° C.): 1.4% | Expulsion [%] ([2]; Ni^2+, 22° C.): 4.6% | Expulsion [%] ([2]; Ni^2+, 30° C.): 4.6% | Expulsion [%] ([2]; Ni^2+, 40° C.): 97.1% | Expulsion [%] ([2]; Ni^2+, 50° C.): 95.2% | Expulsion [%] ([2]; Pb^2+, 4° C.): ≥ 98.1^1% | Expulsion [%] ([2]; Pb^2+, 7° C.): ≥ 98.1^1% | Expulsion [%] ([2]; Pb^2+, 22° C.): ≥ 98.1^1% | Expulsion [%] ([2]; Pb^2+, 30° C.): ≥ 98.1^1% | Expulsion [%] ([2]; Pb^2+, 40° C.): ≥ 98.1^1% | Expulsion [%] ([2]; Pb^2+, 50° C.): ≥ 98.1^1% | Expulsion [%] ([2]; Zn^2+, 4° C.): 9.0% | Expulsion [%] ([2]; Zn^2+, 7° C.): 10.4% | Expulsion [%] ([2]; Zn^2+, 22° C.): 22.9% | Expulsion [%] ([2]; Zn^2+, 30° C.): 25.7% | Expulsion [%] ([2]; Zn^2+, 40° C.): 97.6% | Expulsion [%] ([2]; Zn^2+, 50° C.): 98.0% | Expulsion [%] Ca^2+ ([3]; Ca^2+): 67% | Expulsion [%] Cr^3+ ([3]; Cr^3+): 91% | Expulsion [%] K^+ ([3]; K^+): 36% | Expulsion [%] Mg^2+ ([3]; Mg^2+): 74% | Expulsion [%] Na^+ ([3]; Na^+): 14% | Expulsion [%] Zn^2+ ([3]; Zn^2+): >39^1) % | Expulsion [%] ([4]; Spiked TS 1): ≥ 52^2) % | Expulsion [%] ([4]; TS 1): ≥ 58^2) %
